Entries after “also recorded” stand apart in the source; their conditions may differ. Like-named read-outs stand apart in the source and are kept apart here.
Target: KCNQ2/3 (Homo sapiens, UniProt O43525+O43526)
Assay: TEVC of heteromeric KCNQ2/3 channels expressed in Xenopus laevis oocytes
Type: cell-based
From the text: cRNA transcripts encoding human KCNA1, KCNQ1, KCNQ2, KCNQ3, KCNQ4, or KCNQ5 were generated by in vitro transcription using the T7 polymerase message machine kit (Thermo Fisher Scientific), after vector linearization, from cDNA sub-cloned into plasmids incorporating X. laevis β-globin 5′ and 3′ UTRs flanking the coding region to enhance translation and cRNA stability. cRNA was quantified by spectrophotometry. Mutant cDNAs were generated by site-directed mutagenesis using a QuikChange kit according to manufacturer's protocol (Stratagene, San Diego, Calif.) and corresponding cRNAs prepared as above. Defolliculated stage V and VI X. laevis oocytes (Ecocyte Bioscience, Austin, Tex.) were injected with Kv channel a subunit cRNAs (10 ng total per oocyte). Oocytes were incubated at 16° C. in Barth's saline solution (Ecocyte) containing penicillin and streptomycin, with daily washing, for 3-5 days prior to two-electrode voltage-clamp (TEVC) recording.
TEVC recording was performed at room temperature with an OC-725C amplifier (Warner Instruments, Hamden, Conn.) and pClamp10.2 software (Molecular Devices, Sunnyvale, Calif.) 3-5 days after cRNA injection as described in the section above. Oocytes were placed in a small-volume oocyte bath (Warner) and viewed with a dissection microscope. Chemicals were sourced from Sigma. Bath solution was (in mM): 96 NaCl, 4 KCl, 1 MgCl2, 1 CaCl2. 10 HEPES (pH 7.6). […] MTX (DMSO), sorbic acid (ethanol), and glutaconic acid (molecular grade H2O) were stored at −20° C. as 1 M stocks. Oleamide was stored as a 1 mM stock in ethanol at 4° C. Palmitic acid was conjugated with bovine serum albumin as a 1 mM stock and stored at −20° C. All compounds were diluted to working concentrations each experimental day. All compounds were introduced to the recording bath via gravity perfusion at a constant flow of 1 ml/min for 3 min prior to recording. Pipettes were of 1-2 MΩ resistance when filled with 3 M KCl. Currents were recorded in response to pulses between −80 and +40 mV at 20 mV intervals, or a single pulse to +40 mV, from a holding potential of −80 mV, to yield current-voltage relationships, current magnitude, and for quantifying activation rate. TEVC data analysis was performed with Clampfit10.2 (Molecular Devices) and Graphpad Prism software (GraphPad, San Diego, Calif., USA); values are stated as mean±SEM. Normalized tail currents were plotted versus prepulse voltage and fitted with a single Boltzmann function: […]
cRNA transcripts encoding human KCNQ2, KCNQ3, KCNQ4, KCNQ5 (Kv7.2-Kv7.5) were generated by in vitro transcription using the T7 polymerase mMessage mMachine kit (Thermo Fisher Scientific), after vector linearization, from cDNA sub-cloned into plasmids incorporating Xenopus laevis β-globin 5′ and 3′ UTRs flanking the coding region to enhance translation and cRNA stability. cRNA was quantified by spectrophotometry. Mutant KCNQ2 and KCNQ3 cDNAs were generated with site-directed mutagenesis using a QuikChange kit according to the manufacturer's protocol (Stratagene, San Diego, Calif.) and corresponding cRNAs prepared as above.

CS(=O)(=O)N(CC(=O)O)c1cccc(F)c1 [3FMSG]
effect on KCNQ2/3 gating kinetics: speeded KCNQ2/3 activation and slowed its deactivation | tau of KCNQ2/3 current decrease during washout (100 μM, −60 mV): 39 ± 10 s | tau of KCNQ2/3 current increase during wash-in (100 μM, −60 mV): 15 ± 3 s | EC50 (Example 4, read-out: EC50, shift in voltage dependence of KCNQ2/3 activation (ΔV0.5act)): 51 ± 21 nM

CCCCCCCCC/C=C/C=O [(E)-2-dodecenal]
effect on KCNQ2/3 activity (in words): activated KCNQ2/3 | shift in voltage dependence of KCNQ2/3 activation (100 nM): > 10 mV | EC50 (wild-type KCNQ2/3, read-out: EC50 of KCNQ2/3 activation by (E)-2-dodecenal): 60 ± 20 nM

CC(=O)c1c(O)c(C)c(O)c(Cc2c(O)c3c(c(C(=O)/C=C/c4ccccc4)c2O)OC(C)(C)C=C3)c1O [MTX, mallotoxin]
effect on KCNQ2/3 gating kinetics: speeded KCNQ2/3 activation and slowed deactivation | effect on KCNQ2/3 at low dose (1 μM alone): negligible effects | effect on voltage dependence of KCNQ2/3 activation, screen of M. oppositifolius leaf compounds (100 μM, MTX and palmitic acid 30 μM): negative-shifted | effect on KCNQ2/3 at +40 mV (+40 mV): little effect | relative ion permeability of KCNQ2/3 compared to K+ (MTX 30 μM, 100 mM ion): increased relative permeability of KCNQ2/3 to Na^+ and Cs^+, and decreased permeability to Rb^+ | shift of V0.5 of KCNQ2/3 activation (ΔV0.5) (RTG 10 μM, MTX 30 μM, IVA 500 μM, alone or in combination): −17 mV | EC50 (current at −60 mV, read-out: EC50 of KCNQ2/3 activation): 11500 nM | time to plateau of KCNQ2/3 activation on wash-in (−60 mV): 5 min | KCNQ2/3 current fold-increase (−60 mV, 100 μM MTX): seven-fold | KCNQ2/3 current fold-increase (−60 mV, MTX 30 μM, IVA 500 μM alone or in combination): fivefold

NCC1(CC(=O)O)CCCCC1 [gabapentin, reference compound]
effect on KCNQ2/3 activity (in words): potently activated | effect on KCNQ2/3 gating kinetics: speeded KCNQ2/3 activation and slowed deactivation | potency on KCNQ2/3, fold more potent than GABA: 200 fold | shift in voltage dependence of KCNQ2/3 activation (1 μM gabapentin): −9 mV | washout of effect on KCNQ2/3 (after 2 minutes): < 50% | EC50 (current at −60 mV, read-out: EC50 for KCNQ2/3 activation): 4.2 nM | shift of membrane potential (EM) of KCNQ2/3-expressing oocytes (unclamped oocytes): > −10 mV | time to plateau of KCNQ2/3 current augmentation on wash-in (−60 mV): ~2 min | KCNQ2/3 current fold-increase (−60 mV, 10 nM): 3.5 fold

NCC(=O)O [glycine, reference compound]
effect on KCNQ2/3 activity (in words): nor does it activate KCNQ2/3; also recorded: no effect

Reference: patent US12268683B2, “Compounds and methods for synergistic activation of M channels” (THE REGENTS OF THE UNIVERSITY OF CALIFORNIA, priority 2018, dated 2025)
